From patent US10975056B2 (GlaxoSmithKline Intellectual Property Development Limited, priority 2016, dated 2021)
Several values for one entry are separate records, joined by “and”; a condition that tells them apart may be missing. Equal values may be shown once. Where a name gives a salt, the structure may show the parent alone. Read-outs that look alike come from different tables or passages of the source.

Key:
[1] = test system: erythroid progenitor cells (EPCs); experiment: Fetal hemoglobin (HbF) ELISA in day 7 erythroid progenitor cells; format: cell-based, human; settings: Homo sapiens, Erythroid progenitor cell, HbF ELISA, day 7 EPCs, 5 days; read-out: EPC ELISA (pEC50 category) (converted);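 also: for fetal hemoglobin induction normalized to vehicle-treated cells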
In short: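 HbF induction was read by anti-HbF sandwich ELISA (HRP/TMB, OD450) on lysates and normalized to vehicle-treated cells. Cells were day 7 erythroid progenitors derived from human bone marrow CD34+ cells, seeded at 1,000/well with 3 U/mL rhEPO. Compound was given for 5 days at 37 °C at final concentrations […].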

DNMT1 = DNMT1 (Homo sapiens, UniProt P26358); experiment: DNMT1 biochemical activity, breaklight assay and/or SPA assay
DNMT1, sequence (P26358 whole entry, looked up): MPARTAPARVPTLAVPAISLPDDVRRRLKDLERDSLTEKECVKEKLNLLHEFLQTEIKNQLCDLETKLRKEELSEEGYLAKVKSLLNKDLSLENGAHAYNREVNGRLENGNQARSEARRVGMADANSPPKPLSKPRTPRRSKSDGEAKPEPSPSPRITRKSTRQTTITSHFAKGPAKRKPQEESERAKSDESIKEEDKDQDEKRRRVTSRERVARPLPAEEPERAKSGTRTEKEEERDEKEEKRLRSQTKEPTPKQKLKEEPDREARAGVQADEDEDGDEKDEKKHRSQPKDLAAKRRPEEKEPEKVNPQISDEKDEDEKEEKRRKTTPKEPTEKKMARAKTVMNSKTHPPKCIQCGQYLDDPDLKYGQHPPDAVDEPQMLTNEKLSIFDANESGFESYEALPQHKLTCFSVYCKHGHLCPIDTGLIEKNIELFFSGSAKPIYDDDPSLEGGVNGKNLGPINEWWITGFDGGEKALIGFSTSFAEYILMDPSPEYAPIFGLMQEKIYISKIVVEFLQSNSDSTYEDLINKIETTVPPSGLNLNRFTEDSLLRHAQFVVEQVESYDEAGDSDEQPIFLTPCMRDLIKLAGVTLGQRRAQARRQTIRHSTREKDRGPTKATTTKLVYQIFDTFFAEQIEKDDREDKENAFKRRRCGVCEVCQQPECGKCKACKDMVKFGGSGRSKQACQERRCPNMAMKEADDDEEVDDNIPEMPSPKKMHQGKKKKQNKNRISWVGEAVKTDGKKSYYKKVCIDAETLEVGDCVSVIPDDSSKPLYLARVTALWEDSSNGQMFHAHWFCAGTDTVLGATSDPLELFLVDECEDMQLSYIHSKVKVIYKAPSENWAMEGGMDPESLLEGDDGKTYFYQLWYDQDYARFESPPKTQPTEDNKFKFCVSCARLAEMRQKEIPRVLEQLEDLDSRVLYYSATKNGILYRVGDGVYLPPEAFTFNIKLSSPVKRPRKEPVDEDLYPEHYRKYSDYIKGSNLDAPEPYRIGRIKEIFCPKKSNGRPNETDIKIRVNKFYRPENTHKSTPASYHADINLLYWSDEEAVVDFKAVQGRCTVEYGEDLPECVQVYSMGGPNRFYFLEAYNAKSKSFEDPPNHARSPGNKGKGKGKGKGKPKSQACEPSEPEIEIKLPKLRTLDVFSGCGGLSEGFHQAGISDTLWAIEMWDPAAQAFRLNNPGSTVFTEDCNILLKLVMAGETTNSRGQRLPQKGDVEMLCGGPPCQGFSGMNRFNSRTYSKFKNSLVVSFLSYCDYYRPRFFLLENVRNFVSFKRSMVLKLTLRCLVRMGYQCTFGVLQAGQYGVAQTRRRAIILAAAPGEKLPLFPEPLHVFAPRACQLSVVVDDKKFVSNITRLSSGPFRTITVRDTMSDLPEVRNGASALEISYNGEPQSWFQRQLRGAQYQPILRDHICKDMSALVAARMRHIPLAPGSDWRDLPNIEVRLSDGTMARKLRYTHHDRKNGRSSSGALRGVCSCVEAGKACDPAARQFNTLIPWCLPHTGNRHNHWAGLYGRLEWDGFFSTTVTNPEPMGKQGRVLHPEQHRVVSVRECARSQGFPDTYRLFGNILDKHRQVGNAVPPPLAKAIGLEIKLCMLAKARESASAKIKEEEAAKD

[2] = binned activity in either the breaklight or the SPA assay, read-out: DNMT1 BioChemical (pIC50 category) (converted)
[3] = breaklight assay and/or SPA assay, repeated experimental runs, read-out: average pIC50 against DNMT1 (converted)
[4] = binned activity in either the breaklight or the SPA assay

Compound	EC50 [1] [nM]	IC50 (DNMT1; [2]) [nM]	DNMT1 BioChemical (pIC50 category) (DNMT1; [4])	IC50 (DNMT1; [3])
CCc1c(C#N)c(SCc2ccc(/C=C/C(=O)O)cc2)nc(N(C)C)c1C#N [Example 102, (E)-3-(4-(((3,5-Dicyano-6-(dimethylamino)-4-ethylpyridin-2-yl)thio)methyl)phenyl)acrylic acid, Trifluoroacetic Acid Salt]	> 31600	1000 to 31600		≥ 1000 nM
N#Cc1c(SC(C(N)=O)c2ccccc2)nc(N2CCC(CN3CCCC3)CC2)c(C#N)c1C1CC1 (stereo not drawn) [Example 39, 2-((3,5-Dicyano-4-cyclopropyl-6-(4-(pyrrolidin-1-ylmethyl)piperidin-1-yl)pyridin-2-yl)thio)-2-phenylacetamide]	< 316		D (Category D: ≥6.5)	
CCc1c(C#N)c(SCc2ccc(CNC(C)=O)cc2)nc(N2CCC(N)CC2)c1C#N [Example 156, N-(4-(((6-(4-Aminopiperidin-1-yl)-3,5-dicyano-4-ethylpyridin-2-yl)thio)methyl)benzyl)acetamide, Trifluoroacetic Acid Salt]	316 to 1000		D (Category D: ≥6.5)	
CCc1c(C#N)c(SC(C(N)=O)c2ccccc2)nc(N2CCCN(CC(C)(C)O)CC2)c1C#N (stereo not drawn) [Example 194, 2-((3,5-Dicyano-4-ethyl-6-(4-(2-hydroxy-2-methylpropyl)-1,4-diazepan-1-yl)pyridin-2-yl)thio)-2-phenylacetamide]	< 316	316 to 1000		
CCc1c(C#N)c(SC(C(N)=O)c2ccccc2)nc(N2CCC(N3C(=O)COC3=O)CC2)c1C#N (stereo not drawn) [Example 260, 2-((3,5-Dicyano-6-(4-(2,4-dioxooxazolidin-3-yl)piperidin-1-yl)-4-ethylpyridin-2-yl)thio)-2-phenylacetamide]	1000 to 31600	316 to 1000		
CCc1c(C#N)c(SC(C(N)=O)c2ccccc2)nc(N2CCC(=O)N(C)CC2)c1C#N (stereo not drawn) [Example 111, 2-{[3,5-Dicyano-4-ethyl-6-(4-methyl-5-oxo-1,4-diazepan-1-yl)pyridin-2-yl]sulfanyl}-2-phenylacetamide]	< 316	316 to 1000		
CCc1c(C#N)c(SC(C(N)=O)c2ccncc2)nc(N(C)C)c1C#N (stereo not drawn) [Example 27, 2-((3,5-dicyano-6-(dimethylamino)-4-ethylpyridin-2-yl)thio)-2-(pyridin-4-yl)acetamide]	> 31600		D (Category D: ≥6.5)	
CCc1c(C#N)c(SC(C(N)=O)c2ccccc2)nc(N2CC(O)C2)c1C#N (stereo not drawn) [Example 146, 2-((3,5-Dicyano-4-ethyl-6-(3-hydroxyazetidin-1-yl)pyridin-2-yl)thio)-2-phenylacetamide]	316 to 1000		D (Category D: ≥6.5)	
CCc1c(C#N)c(N[C@@H](C(N)=O)c2ccccc2)nc(N2CCCN(CCCN3CCCC3)CC2)c1C#N [Example 163, (R)-2-((3,5-Dicyano-4-ethyl-6-(4-(3-(pyrrolidin-1-yl)propyl)-1,4-diazepan-1-yl)pyridin-2-yl)amino)-2-phenylacetamide]	> 31600	1000 to 31600		
CCc1c(C#N)c(SC(C(N)=O)c2ccccc2)nc(N2CC[C@@H](O)C2)c1C#N (stereo partly drawn) [Example 160, 2-((3,5-Dicyano-4-ethyl-6-((R)-3-hydroxypyrrolidin-1-yl)pyridin-2-yl)thio)-2-phenylacetamide]	1000 to 31600	1000 to 31600		
CCc1c(C#N)c(S[C@H](C(N)=O)c2ccccc2)nc(N2CC[C@@H](N)[C@@H](F)C2)c1C#N [Example 531, (S)-2-((6-((3S,4R)-4-amino-3-fluoropiperidin-1-yl)-3,5-dicyano-4-ethylpyridin-2-yl)thio)-2-phenylacetamide • (0.67)2,2,2-trifluoroacetate • (0.33)methanesulfonate]	< 316	1000 to 31600		≥ 1000 nM and 1580 nM
CCOc1c(C#N)c(SC(C)C(N)=O)nc(N2CCCN(CCO)CC2)c1C#N (stereo not drawn) [Example 212, 2-((3,5-Dicyano-4-ethoxy-6-(4-(2-hydroxyethyl)-1,4-diazepan-1-yl)pyridin-2-yl)thio)propanamide]	1000 to 31600	316 to 1000		
CCc1c(C#N)c(SC(C(N)=O)c2ccccc2)nc(N(C)CCOP(=O)(O)O)c1C#N (stereo not drawn) [Example 151, 2-((6-((2-Amino-2-oxo-1-phenylethyl)thio)-3,5-dicyano-4-ethylpyridin-2-yl)(methyl)amino)ethyl dihydrocien phosphate]	> 31600	1000 to 31600		
CCc1c(C#N)c(SC(C(N)=O)c2ccccc2)nc(N2CCC(NC(=O)CCCN)CC2)c1C#N (stereo not drawn) [Example 629, 4-amino-N-(1-(6-((2-amino-2-oxo-1-phenylethyl)thio)-3,5-dicyano-4-ethylpyridin-2-yl)piperidin-4-yl)butanamide formate]	1000 to 31600		D (Category D: ≥6.5)	

The next lines start with results.

EC50 [1] [nM]	IC50 (DNMT1; [2]) [nM]	DNMT1 BioChemical (pIC50 category) (DNMT1; [4])	Compound	IC50 (DNMT1; [3])
> 31600	316 to 1000		CCc1c(C#N)c(SCc2ccc(-c3ccncc3)cc2)nc(N2CCC(N3CCCC3)CC2)c1C#N [Example 338, 4-Ethyl-2-((4-(pyridin-4-yl)benzyl)thio)-6-(4-(pyrrolidin-1-yl)piperidin-1-yl)pyridine-3,5-dicarbonitrile]	
1000 to 31600		D (Category D: ≥6.5)	CCc1c(C#N)c(SC(C(N)=O)c2ccc(S(=O)(=O)NC)cc2)nc(N(C)C)c1C#N (stereo not drawn) [Example 402]	
1000 to 31600		D (Category D: ≥6.5)	CCc1c(C#N)c(SC(C(N)=O)c2ccccc2)nc(N2CC(F)(CN)C2)c1C#N (stereo not drawn) [Example 688, 2-((6-(3-(aminomethyl)-3-fluoroazetidin-1-yl)-3,5-dicyano-4-ethylpyridin-2-yl)thio)-2-phenylacetamide]	
1000 to 31600		D (Category D: ≥6.5)	CCc1c(C#N)c(SC(C(N)=O)c2ccccc2)nc(N2CCC[C@@H](N)C2)c1C#N (stereo partly drawn) [Example 691, 2-((6-((R)-3-aminopiperidin-1-yl)-3,5-dicyano-4-ethylpyridin-2-yl)thio)-2-phenylacetamide]	
< 316		D (Category D: ≥6.5)	CCc1c(C#N)c(SC(C(N)=O)c2ccccc2)nc(N(C)CC(=O)N2CC(O)C2)c1C#N (stereo not drawn) [Example 633, 2-((3,5-dicyano-4-ethyl-6-((2-(3-hydroxyazetidin-1-yl)-2-oxoethyl)(methyl)amino)pyridin-2-yl)thio)-2-phenylacetamide]	
< 316		D (Category D: ≥6.5)	CCc1c(C#N)c(SC(C(N)=O)c2ccccc2)nc(N2CCC(NCc3ccc(OC)nc3)CC2)c1C#N (stereo not drawn) [Example 467, 2-((3,5-dicyano-4-ethyl-6-(4-(((6-methoxypyridin-3-yl)methyl)amino)piperidin-1-yl)pyridin-2-yl)thio)-2-phenylacetamide]	
< 316		D (Category D: ≥6.5)	CCc1c(C#N)c(SC(C(N)=O)c2ccccc2)nc(N2CCC(N3CC[C@H](F)C3)CC2)c1C#N (stereo partly drawn) [Example 457, 2-((3,5-dicyano-4-ethyl-6-(4-((S)-3-fluoropyrrolidin-1-yl)piperidin-1-yl)pyridin-2-yl)thio)-2-phenylacetamide]	
316 to 1000		D (Category D: ≥6.5)	CCc1c(C#N)c(SC(C(N)=O)c2ccccc2)nc(N2CCC(NCC(N)=O)CC2)c1C#N (stereo not drawn) [Example 393, 2-((6-(4-((2-Amino-2-oxoethyl)amino)piperidin-1-yl)-3,5-dicyano-4-ethylpyridin-2-yl)thio)-2-phenylacetamide]	
< 316		D (Category D: ≥6.5)	CCc1c(C#N)c(SCc2ccc(N(C)S(C)(=O)=O)cc2)nc(N2CCC(NC(=O)C(C)(C)N)CC2)c1C#N [Example 572, 2-amino-N-(1-(3,5-dicyano-4-ethyl-6-((4-(N-methylmethylsulfonamido)benzyl)thio)pyridin-2-yl)piperidin-4-yl)-2-methylpropanamide]	
1000 to 31600	316 to 1000		CCc1c(C#N)c(SCc2cnn(CCO)c2)nc(N2CCC(N)CC2)c1C#N [Example 363]	
< 316		D (Category D: ≥6.5)	CCc1c(C#N)c(SC(C(N)=O)c2ccccc2)nc(N2CCC(N3[C@@H](C)CC[C@@H]3C)CC2)c1C#N (stereo partly drawn) [Example 462, 2-((3,5-dicyano-6-(4-((2S,5S)-2,5-dimethylpyrrolidin-1-yl)piperidin-1-yl)-4-ethylpyridin-2-yl)thio)-2-phenylacetamide]	
316 to 1000	316 to 1000		CCc1c(C)c(N2CCC(N)CC2)nc(SC(C(N)=O)c2ccccc2)c1C#N (stereo not drawn) [Example 376, 2-(6-(4-Aminopiperidin-1-yl)-3-cyano-4-ethyl-5-methylpyridin-2-ylthio)-2-phenylacetamide]	
316 to 1000	1000 to 31600		CCc1c(C#N)c(SC(C(N)=O)c2ccccc2)nc(N2CCC(NC(=O)OC(C)(C)C)CC2)c1C#N (stereo not drawn) [Example 328, tert-Butyl (1-(6-((2-amino-2-oxo-1-phenylethyl)thio)-3,5-dicyano-4-ethylpyridin-2-yl)piperidin-4-yl)carbamate]	
1000 to 31600	< 316		N#Cc1c(SC(C(N)=O)c2ccccc2)nc(N2CC(NC(=O)C3(N)COC3)C2)c(C#N)c1C1CC1 (stereo not drawn) [Example 680, 3-amino-N-(1-(6-((2-amino-2-oxo-1-phenylethyl)thio)-3,5-dicyano-4-cyclopropylpyridin-2-yl)azetidin-3-yl)oxetane-3-carboxamide]	
< 316	< 316		CCc1c(C#N)c(S[C@@H](C(N)=O)c2ccccc2)nc(N(C)CC(N)=O)c1C#N (single isomer, unassigned) [Example 413, 2-((6-((2-amino-2-oxoethyl)(methyl)amino)-3,5-dicyano-4-ethylpyridin-2-yl)thio)-2-phenylacetamide]	
